One test addresses T1, LXRα (Homo sapiens, UniProt Q13133).
T1 sequence (Q13133 209-447 limits assumed): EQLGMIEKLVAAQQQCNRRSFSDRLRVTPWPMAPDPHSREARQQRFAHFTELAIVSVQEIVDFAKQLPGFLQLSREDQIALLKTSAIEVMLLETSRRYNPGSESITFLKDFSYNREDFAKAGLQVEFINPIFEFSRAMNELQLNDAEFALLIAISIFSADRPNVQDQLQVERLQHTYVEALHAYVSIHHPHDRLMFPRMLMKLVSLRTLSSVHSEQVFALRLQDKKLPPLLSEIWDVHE
The test is described as follows: Luminex coregulator peptide recruitment with LXRα LBD at […]. The test is classed as cell-based.

In a further test the target is T2, LXRβ (Homo sapiens, UniProt P55055).
T2 sequence (P55055 1-460): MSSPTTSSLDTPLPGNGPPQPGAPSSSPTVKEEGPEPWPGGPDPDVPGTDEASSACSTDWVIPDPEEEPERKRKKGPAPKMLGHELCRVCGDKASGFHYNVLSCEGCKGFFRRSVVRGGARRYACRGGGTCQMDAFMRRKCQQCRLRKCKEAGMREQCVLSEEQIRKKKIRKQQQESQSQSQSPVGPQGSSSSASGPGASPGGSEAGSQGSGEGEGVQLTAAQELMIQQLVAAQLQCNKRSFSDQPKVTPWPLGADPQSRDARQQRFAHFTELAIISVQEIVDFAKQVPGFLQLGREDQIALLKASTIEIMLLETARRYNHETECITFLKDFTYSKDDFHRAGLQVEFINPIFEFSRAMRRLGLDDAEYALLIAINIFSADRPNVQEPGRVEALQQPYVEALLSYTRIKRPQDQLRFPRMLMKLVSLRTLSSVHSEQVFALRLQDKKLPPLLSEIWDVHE
Put plainly: LXRE-driven luciferase cotransfection assay in HEK293 cells. The test is classed as cell-based.

The values that follow come from paper PMC5087326 (Biochemical and biophysical research communications, 2016).

By IC50 is commonly meant the concentration that inhibits the measured activity by half. A high value points to weaker potency in that assay.

Structures are written as SMILES.

For the compound `Cc1cc(C)c(S(=O)(=O)N(Cc2ccc(-c3cccc(S(C)(=O)=O)c3)cc2)Cc2ccc(C(F)(F)F)o2)c(C)c1` [GSK2033], the IC50 against LXRα is 17 nM; against LXRβ, 9 nM.
